Assay results from ChEMBL document CHEMBL4477215, “Specific Correction of Alternative Survival Motor Neuron 2 Splicing by Small Molecules: Discovery of a Potential Novel Medicine To Treat Spinal Muscular Atrophy” (J Med Chem, 2016).
pIC50: −log10 of the molar value. Calls of active or inactive are those of the source. The calls are words filed in the database; no cut-off is given here.

Legend:
[1] = Mutagenicity in Salmonella typhimurium TA102 assessed as increase in revertant colonies after 2 days in presence of rat liver S9 fraction by Ames test relative to control; type: toxicity; details: salmonella enterica subsp. enterica serovar typhimurium, s9, 48 h
[2] = Mutagenicity in Salmonella typhimurium TA100 assessed as increase in revertant colonies after 2 days in presence of rat liver S9 fraction by Ames test relative to control; type: toxicity; details: salmonella enterica subsp. enterica serovar typhimurium, s9, 48 h
[3] = Mutagenicity in Salmonella typhimurium TA1535 assessed as increase in revertant colonies after 2 days in presence of rat liver S9 fraction by Ames test relative to control; type: toxicity; details: salmonella enterica subsp. enterica serovar typhimurium, s9, 48 h
Homo sapiens [4] = species: Homo sapiens; test: Inhibition of mRNA splicing of SMN2 exon 7 in GM03813 fibroblasts derived from human SMA type 1 patient after 24 hrs by RT-qPCR analysis
[5] = Mutagenicity in Salmonella typhimurium TA98 assessed as increase in revertant colonies after 2 days in presence of rat liver S9 fraction by Ames test relative to control; type: toxicity; details: salmonella enterica subsp. enterica serovar typhimurium, s9, 48 h
[6] = Mutagenicity in Salmonella typhimurium TA97 assessed as increase in revertant colonies after 2 days in presence of rat liver S9 fraction by Ames test relative to control; type: toxicity; details: salmonella enterica subsp. enterica serovar typhimurium, s9, 48 h
Homo sapiens [7] = species: Homo sapiens; test: Inhibition of mRNA splicing of SMN2 exon 7 in fibroblasts derived from human SMA type 1/2/3 patient assessed as increase in SMN protein level after 48 hrs by HTRF assay
[8] = Octanol-aqueous phosphate buffer distribution coefficient, log D of the compound at pH 7.4 at 100 mM after 24 hrs by LC-MS based shake flask method; type: physicochemical
P-gp (ABCB1) = P-gp (ABCB1) (Homo sapiens, UniProt P08183); test: Substrate activity at human P-gp assessed as efflux ratio by cell based assay; details: not told
NIH3T3 = test: Phototoxicity in mouse 3T3 cells in presence of UVA irradiation; type: functional, cell-based; details: NIH3T3, light or radiation study
[9] = Stability of the compound in pH 1 to 12 aqueous buffer; type: physicochemical
[10] = Stability of the compound in human plasma; type: ADME, cell-free
[11] = Stability in human plasma assessed as compound remaining after 5 hrs; type: ADME, cell-free; details: read-out: Stability

Chain of P-gp (ABCB1) (P08183 whole entry): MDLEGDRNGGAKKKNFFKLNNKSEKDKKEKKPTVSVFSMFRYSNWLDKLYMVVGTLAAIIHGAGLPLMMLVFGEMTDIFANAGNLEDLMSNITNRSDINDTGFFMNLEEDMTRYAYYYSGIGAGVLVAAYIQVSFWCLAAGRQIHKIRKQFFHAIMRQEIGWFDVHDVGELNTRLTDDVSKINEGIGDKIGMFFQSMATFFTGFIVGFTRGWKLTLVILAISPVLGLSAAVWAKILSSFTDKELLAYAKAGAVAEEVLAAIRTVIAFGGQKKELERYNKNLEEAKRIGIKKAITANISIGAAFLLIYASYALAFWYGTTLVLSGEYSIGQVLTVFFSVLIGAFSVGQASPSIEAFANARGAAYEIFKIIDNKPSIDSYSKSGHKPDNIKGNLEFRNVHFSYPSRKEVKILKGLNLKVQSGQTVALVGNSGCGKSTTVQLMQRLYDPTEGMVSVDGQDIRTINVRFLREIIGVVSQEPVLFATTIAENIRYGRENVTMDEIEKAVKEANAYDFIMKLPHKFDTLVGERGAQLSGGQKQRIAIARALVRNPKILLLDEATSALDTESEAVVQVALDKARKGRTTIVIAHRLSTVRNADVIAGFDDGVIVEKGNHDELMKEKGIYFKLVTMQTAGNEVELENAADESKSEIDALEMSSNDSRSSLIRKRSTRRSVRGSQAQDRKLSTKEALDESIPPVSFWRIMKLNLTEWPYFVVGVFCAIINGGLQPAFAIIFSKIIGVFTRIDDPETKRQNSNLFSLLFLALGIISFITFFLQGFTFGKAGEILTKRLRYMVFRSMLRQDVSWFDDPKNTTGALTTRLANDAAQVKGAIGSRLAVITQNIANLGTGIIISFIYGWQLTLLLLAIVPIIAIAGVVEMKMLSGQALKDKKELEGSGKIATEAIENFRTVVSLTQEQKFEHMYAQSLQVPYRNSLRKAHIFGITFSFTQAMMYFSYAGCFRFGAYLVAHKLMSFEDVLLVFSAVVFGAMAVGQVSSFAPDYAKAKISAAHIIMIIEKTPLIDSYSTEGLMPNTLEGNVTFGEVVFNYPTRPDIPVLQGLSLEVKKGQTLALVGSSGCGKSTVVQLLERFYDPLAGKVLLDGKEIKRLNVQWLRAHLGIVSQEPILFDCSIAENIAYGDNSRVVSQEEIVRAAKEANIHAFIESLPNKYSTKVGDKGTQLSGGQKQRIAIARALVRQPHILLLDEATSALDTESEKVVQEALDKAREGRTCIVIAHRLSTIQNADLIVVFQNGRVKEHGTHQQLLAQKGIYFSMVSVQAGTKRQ

SMILES	Activity [1]	Activity [2]	Activity [3]	EC1.5 (Homo sapiens [4])	Activity [5]	Activity [6]	EC1.5 (Homo sapiens [7])	fold change (FC) [1]	fold change (FC) [2]	fold change (FC) [3]	fold change (FC) [5]	fold change (FC) [6]	other results
CCc1nc(C)cn2nc(-c3cc(=O)n4cc(N5CCN6CCC[C@H]6C5)ccc4n3)cc12	Non-Toxic	Non-Toxic	Non-Toxic	40 nM	Non-Toxic	Non-Toxic	163 nM	–	–	–	–	–	–
Cc1nc2ccc(-c3cc(=O)n4cc(N5CCN(C)CC5)ccc4n3)cn2n1	–	–	–	314 nM	–	–	820 nM	< 1.5	< 1.5	< 2	< 2	< 1.5	–
CCN1CCC(c2cc(C)c3nc(-c4cc5c(C)nc(C)cn5n4)cc(=O)n3c2)CC1	Non-Toxic	Non-Toxic	Non-Toxic	30 nM	Non-Toxic	Non-Toxic	84 nM	–	–	–	–	–	logD at 24 h [8]: 1.87; efflux ratio (P-gp (ABCB1)): 1.4
CCc1nc(C)cn2nc(-c3cc(=O)n4cc(C5=CCNCC5)cc(C)c4n3)cc12	Non-Toxic	Non-Toxic	Non-Toxic	6 nM	Non-Toxic	Non-Toxic	15 nM	–	–	–	–	–	–
Cc1cn2nc(-c3cc(=O)n4cc(N5CCN(C)CC5)ccc4n3)cc2c(C)n1	Non-Toxic	Non-Toxic	Non-Toxic	92 nM	Non-Toxic	Non-Toxic	170 nM	–	–	–	–	–	pIC50 (NIH3T3): 5.54; Stability [9]: Stable; Stability [10]: Stable
Cc1cn2cc(-c3cc(=O)n4cc(N5CCC(N6CCCC6)CC5)ccc4n3)cc(C(F)(F)F)c2n1	–	–	–	–	–	–	76 nM	–	–	–	–	–	logD at 24 h [8]: 1.45; efflux ratio (P-gp (ABCB1)): 8.5
Cc1cn2cc(-c3cc4ccc(F)cc4c(=O)o3)nc2c(C)n1	–	–	–	–	–	–	–	–	–	–	–	–	remaining at 5 h [11]: 30%
CCN1CCN(c2ccc3cc(-c4cn5cc(C)nc(C)c5n4)c(=O)oc3c2)C[C@@H]1C	–	–	–	–	–	–	–	–	–	–	–	–	pIC50 (NIH3T3): 7.10; remaining at 5 h [11]: 93%
Cc1cn2nc(-c3cc(=O)n4cc(C5CCN(C)CC5)cc(C)c4n3)cc2c(C)n1	Non-Toxic	Non-Toxic	Non-Toxic	57 nM	Non-Toxic	Non-Toxic	77 nM	–	–	–	–	–	logD at 24 h [8]: 1.82; efflux ratio (P-gp (ABCB1)): 1.2
Cc1cn2cc(-c3cc4ccc(N5CCN(C)CC5)cc4c(=O)o3)nc2c(C)n1	–	–	–	–	–	–	–	–	–	–	–	–	pIC50 (NIH3T3): 6.82; remaining at 5 h [11]: 55%
CC(=O)c1cc2ccc(F)cc2c(=O)o1	–	–	–	–	–	–	–	–	–	–	–	–	remaining at 5 h [11]: 16%
CN1CCN(c2ccc3nc(-c4ccc5nccn5c4)cc(=O)n3c2)CC1	–	–	–	582 nM	–	–	3400 nM	< 1.5	< 1.5	< 2	< 2	< 1.5	–
Cc1nc2ccc(-c3cc(=O)n4cc(N5CCN(C)CC5)ccc4n3)cc2o1	–	–	–	148 nM	–	–	395 nM	< 1.5	< 1.5	< 2	< 2	< 1.5	–
Cc1nc2c(F)cc(-c3cc(=O)n4cc(N5CCNCC5)ccc4n3)cc2o1	–	–	–	1 nM	–	–	4 nM	< 1.5	< 1.5	< 2	< 2	< 1.5	–
Cc1nc2c(F)cc(-c3cc(=O)n4cc(N5CCN(C)CC5)ccc4n3)cc2o1	–	–	–	3 nM	–	–	13 nM	< 1.5	< 1.5	< 2	< 2	< 1.5	logD at 24 h [8]: 2.46; efflux ratio (P-gp (ABCB1)): 1.1
Cc1cn2cc(-c3cc(=O)n4cc(N5CCN(C)CC5)ccc4n3)ccc2n1	–	–	–	182 nM	–	–	760 nM	< 1.5	< 1.5	< 2	< 2	< 1.5	–
CN1CCN(c2ccc3nc(-c4ccc5c(c4)ncn5C)cc(=O)n3c2)CC1	–	–	–	inactive	–	–	inactive	< 1.5	< 1.5	< 2	< 2	< 1.5	–
Cc1cn2cc(-c3cc(=O)n4cc(N5CCC(N6CCC6)CC5)ccc4n3)cc2c(C)n1	–	–	–	–	–	–	46 nM	–	–	–	–	–	logD at 24 h [8]: 1.53; efflux ratio (P-gp (ABCB1)): 6.6
Cc1cn2cc(-c3cc(=O)n4cc(N5CCNCC5)ccc4n3)cc(F)c2n1	Non-Toxic	Non-Toxic	Non-Toxic	1 nM	Non-Toxic	Non-Toxic	9 nM	–	–	–	–	–	–
